Reference: US20040219217A1, “Conjugates of polysaccharide polymers of natural origin” (priority 2001, published 2004)

Assays:
[1] = tested on: granuloma from cotton pellets; test: induction of granuloma from cotton pellets; format: in vivo; details: rats, subcutaneous cotton pellet 1 g, after fifteen days, vs simple cotton
Source text: 3. Influence of fibre derivatized with anti-inflammatories or with immunostimulating agents on the phlogogenic process.
The experiments have been carried out on rats through the test of induction of granuloma from “cotton pellets”.
According to this test cotton pellets having a pre-established weight (1 g) and shape are introduced into the subcutaneous region of the subaxillary area of the animals using a cannula which can pierce the skin and the sub-skin (the scar is closed again with a suture stitch).
Around the cotton pellet a “granuloma” collagen deposit is formed, whose entity is proportional to the phlogogenic process.
After fifteen days from the operation the granuloma is taken from the animal under anesthesia and it is weighed to determine its entity.
In the present case the cotton used as a base for the implantation of the granuloma consists of: […]

UV-induced edema in skin = test: UV-induced edema (erythema) in rats' skin; format: in vivo; details: daily application, vs animals with no application
Description: 6. Influence of the application of derivatized cotton fibres on UV-induced edema in rats' skin.
Adult rats are depilated on their backs and are then exposed to UV radiations until a consistent skin edema forms.
The exposition is carried out only on pre-established circular areas using suitable pierced masks.
Then normal cotton gauzes (controls) or gauzes obtained from fibre derivatized with a medicament are applied with a good adherence onto the inflamed areas. Simultaneously another group of animals is tested to check the effectiveness of the application of the same medicaments in form of 5% gel.
The regression of the erythema defined as the reduction of the entity and surface of the reddening area is controlled daily with respect to control animals with no application, and immediately afterwards the medicament is applied again in the various forms.
On the 5th day the average extension of the erythema surface is measured and its reduction in percentage with respect to the animals with no application is calculated.

Candida albicans = test: plate culture growth under derivatized cotton gauze; format: cell-based; details: C. albicans, 24 hours at 37° C., vs normal growth conditions
Source text: (§1) 2. Evaluation of the influence of cotton derivatized with germicides, with anti-bacterial or anti-fungi agents in the development and amount of microorganic flora.
(§2) The influence of suitably derivatized cotton fibre on the development of microorganic flora has been determined “in vitro” on plate growing cultures of various micro-organisms: Candida albicans, Escherichia coli, Staphylococcus aureus isolated and characterized by contaminated organic material.
(§3) To this purpose growth selective mediums are prepared (sabouraud agar for fungi and nutrient agar for bacteria) with which Petri dishes are prepared.
(§4) On the medium surface the microorganism culture is applied by deposition of one ml of a suspension of said microorganism containing 10^9 microorganisms, lightly agitating so as to cover the whole plate surface.
(§5) A cotton gauze obtained from fibre derivatized with the various substances taken into consideration is then applied onto the surface; the whole is then placed in a thermostat at 37° C.
(§6) After 24 hours the gauze is removed and the developed colonies are compared with plates in normal growth conditions.
(§7) The reduction in percentage of the growth in the plates characterized by conjugated gauze is evaluated with respect to normal growth conditions.

Staphylococcus aureus = test: as above; format: cell-based; details: S. aureus, 24 hours at 37° C., vs normal growth conditions
Source text: as §1, §2, §3, §4, §5, §6, §7

Escherichia coli = test: as above; format: cell-based; details: E. coli, 24 hours at 37° C., vs normal growth conditions
Source text: as §1, §2, §3, §4, §5, §6, §7

mite population = details: dust collected after two days, vs underivatized fabrics
Description: 8. Performance of anti-mite fabrics.
Cotton fibres conjugated to acaricides (as set out in the chemical experimental part above) were used for obtaining fabrics (woven and non-woven) used in turn for the manufacture of household articles (curtains, carpet floor and the like) placed in living environments. In particular, living environments (flats, apartments and houses) at the countryside at locations particularly exposed to dust and ventilation were chosen. Moreover, the tests were conducted during spring, which is the period with the highest mite contamination risk.
After two days of total exposure of the living environments to the open air, at the point in time zero, the dust was removed through vacuum cleaning and the presence and the status of the mite population contained therein was subjected to microscopic examination. Thereafter, some of the living environments, after appropriate randomization, were equipped with the fabrics according to the invention obtained from fibres conjugated to acaricides, thus making up a first test group. On the other hand, the remaining living environments were equipped with fabrics from customary cotton thereby making up a second test group as a control for the development of the mite population.
After another two days, the dust from both of the test groups was collected and the overall number of mites as well as the number of living mites was established.

[2] = in vitro cleavage of the conjugation in artificial sweat; format: physicochemical; details: 18 h hydrolysis, skin's usual pH, 37° C.
Description: In the following table 2, different chemical conjugations contemplated by the present invention have been tested for in vitro cleavage under conditions simulating the topical application of the polysaccharide polymers of the present invention to the skin. In particular, for evaluating the biodegradability of a given chemical conjugation established between cotton and an active substance, the conjugate is subjected to hydrolysis at the skin's usual pH at 37° C. under mild agitation in the presence of an enzymatic mixture known as “artificial sweat”. After the pre-established time period of contact with the hydrolysis medium, the same was analyzed for the active substances or their fragments contained therein. The examples as listed below were chosen on the following grounds: […]

[3] = tested on: subcutaneous lipid deposit; test: experimental subcutaneous lipid deposit in rats; format: in vivo; details: abdominal tissue, gauze applied from the eighth day, after thirty days
Description: 7. Influence of the application of derivatized cotton fibres on experimental subcutaneous lipid deposit in rats.
The experiments were carried out on adult rats by injecting into their subcutaneous abdominal areas a lipid fraction rich in cholesterol (Sigma L 4646), and daily repeating the administrations until a stabilized subcutaneous lipid deposit is obtained; the fat mixture is injected in six adjacent sites in a volume of 0.2 ml/location for 7 days.
Then, from the eighth day on, cotton gauzes obtained from fibre derivatized with lipase (example II.F. above) are applied onto said areas in a perfectly adhering way.
After thirty days the animals are killed and the treated abdomen areas is taken. Aliquots of said area of about 2 g, precisely weighed, are homogenized in a Waring blender and the lipid content is extracted by adding aliquots of ethyl ether under strong stirring: three extractions with 20 ml of solvent each.
The ether fractions are mixed and concentrated in a rotary evaporator until dryness.
The concentration/g of extracted lipid tissue is determined by weighing said extracts.

[4] = tested on: experimental sclerosis in femoral veins; test: experimental sclerosis in rabbits' femoral veins; format: in vivo; details: rabbit femoral vein, carbon tetrachloride as sclerotizing agent, gauze bandage, after ten days
Description: 4. Influence of the application of derivatized cotton fibres on the entity of experimental sclerosis in rabbits' femoral veins.
After a suitable depilation a rabbit's femoral vein is closed for a length of about 5 cm by means of suture stitches downstream and upstream.
Within the separated area 0.05 ml of carbon tetrachloride in 10% solution (Fluka 87031) is added as sclerotizing agent.
The area is suitably bandaged with normal cotton gauzes (control) or derivatized gauzes so that they perfectly adhere to the treated area.
After ten days the vein fragments undergoing stasis are taken and controlled with a microscope to check the parietal state and the consistency of the sclerotizing deposits.
It is thus possible to observe how the application in the area receiving layers of derivatized cotton gauzes with: […]

cotton-S-S-cys-polylys-naproxen
% reduction in the weight of the granuloma [1]: 64.0%

cotton-S-S-cys-polylys-(PABA-hydrocortisone)n
% reduction in the weight of the granuloma [1]: 90.0%
% reduction of the erythema extension with respect to controls on the 5th day after the induction (UV-induced edema in skin): 95%

cotton-CH═N-gramicidin
% reduction in the development of colonies (Candida albicans): 65%
% reduction in the development of colonies (Staphylococcus aureus): 90%
% reduction in the development of colonies (Escherichia coli): 80%

cotton-CH2—NH-lys-NH—CO-PABA-benzyl benzoate [III.B.2.1.2.]
Decrease (%) of total living mite population (mite population): 59%

cotton-S—S—CH2—CH(COOH)—NH—CO-naproxen
% reduction in the weight of the granuloma [1]: 30.0%

cotton-CH═N-polylys-(NH—CO-PABA-benzylbenzoate)n [III.B.2.2.1.]
Decrease (%) of total living mite population (mite population): 94%

cotton-CH2—NH-lys-NH—CH2-Ph-OH
% reduction in the development of colonies (Candida albicans): 75%
% reduction in the development of colonies (Staphylococcus aureus): 85%
% reduction in the development of colonies (Escherichia coli): 85%
% of released active principle [2]: 1.2%

cotton-CH═N-procaine [Cotton/procaine]
% of released active principle [2]: 76.3%

cotton-S—S—CH2—CH(NH—CO-lipase)-CO—NH-lipase
lower lipid content than the controls [3]: 45%

cotton-CH2—NH-polylys-(NH—CO-PABA-benzylbenzoate)n [III.B.2.2.2.]
Decrease (%) of total living mite population (mite population): 100%

cotton-S—S—CH2—CH(COOH)—N═CH-heparin
tissue sclerotic state [4]: reduce the tissue sclerotic state to a consistent extent
% of released active principle [2]: 50.4%

cotton-CH═N-bacitracin
% reduction in the development of colonies (Candida albicans): 65%
% reduction in the development of colonies (Staphylococcus aureus): 95%
% reduction in the development of colonies (Escherichia coli): 75%

cotton-CH═N-lys-NH—CO-PABA-benzylbenzoate [III.B.2.1.1.]
Decrease (%) of total living mite population (mite population): 58%

cotton-S-S-cys-PABA-hydrocortisone
% reduction in the weight of the granuloma [1]: 55.0%
% reduction of the erythema extension with respect to controls on the 5th day after the induction (UV-induced edema in skin): 60.0%

cotton-S—S-IgG [Cotton/IgG]
% of released active principle [2]: 40.8%
